Assay results from publication PMC5620987 (ACS Central Science, 2017).
Like-named read-outs stand apart in the source and are kept apart here.

Columns and labels:
HDAC6 = HDAC6 (Rattus norvegicus, UniProt A0A8I6GM68); assay: Autoradiography with [18F]Bavarostat on rat brain slices; format: binding, Sprague–Dawley rat; details: sagittal rat brain slices; 10 μM per Figure 4 legend (100 μM per method)
α-tubulin-ac = format: cell-based; details: 6 h, human iPSC-derived NPCs, Western blot
H3K9ac = format: cell-based; details: 6 h, human iPSC-derived NPCs, Western blot
H4K12ac = format: cell-based; details: 6 h, human iPSC-derived NPCs, Western blot

Chain of HDAC6 (A0A8I6GM68 whole entry): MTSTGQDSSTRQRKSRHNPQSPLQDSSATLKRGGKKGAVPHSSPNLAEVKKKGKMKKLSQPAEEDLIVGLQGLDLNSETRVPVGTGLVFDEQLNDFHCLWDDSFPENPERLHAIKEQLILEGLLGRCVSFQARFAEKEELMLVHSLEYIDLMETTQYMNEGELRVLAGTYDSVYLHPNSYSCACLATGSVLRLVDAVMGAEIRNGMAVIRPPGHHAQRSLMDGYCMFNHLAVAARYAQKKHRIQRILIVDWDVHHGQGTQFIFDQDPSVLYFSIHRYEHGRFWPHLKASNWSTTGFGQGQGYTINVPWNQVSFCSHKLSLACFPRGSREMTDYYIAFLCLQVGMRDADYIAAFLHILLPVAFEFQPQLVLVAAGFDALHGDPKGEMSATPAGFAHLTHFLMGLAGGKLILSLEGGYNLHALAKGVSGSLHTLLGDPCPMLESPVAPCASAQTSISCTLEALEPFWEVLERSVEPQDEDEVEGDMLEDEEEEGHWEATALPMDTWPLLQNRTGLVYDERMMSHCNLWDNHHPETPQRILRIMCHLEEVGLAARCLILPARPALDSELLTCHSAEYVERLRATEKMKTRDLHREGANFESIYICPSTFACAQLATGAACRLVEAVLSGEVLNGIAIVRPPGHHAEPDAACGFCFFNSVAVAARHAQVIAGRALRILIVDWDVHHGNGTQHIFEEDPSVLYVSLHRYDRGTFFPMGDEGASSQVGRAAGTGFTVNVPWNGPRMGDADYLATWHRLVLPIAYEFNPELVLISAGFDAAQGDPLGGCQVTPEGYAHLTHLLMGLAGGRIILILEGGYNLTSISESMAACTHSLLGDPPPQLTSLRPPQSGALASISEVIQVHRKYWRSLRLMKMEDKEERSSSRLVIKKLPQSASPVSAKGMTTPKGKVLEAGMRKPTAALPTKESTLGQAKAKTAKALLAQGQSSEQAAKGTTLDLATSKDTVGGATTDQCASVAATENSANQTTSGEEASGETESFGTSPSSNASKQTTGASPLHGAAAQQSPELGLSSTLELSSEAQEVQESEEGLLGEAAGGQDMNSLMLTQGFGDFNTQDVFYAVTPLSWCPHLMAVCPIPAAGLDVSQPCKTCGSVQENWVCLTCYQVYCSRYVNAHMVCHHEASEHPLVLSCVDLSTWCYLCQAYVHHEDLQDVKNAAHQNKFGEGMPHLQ

For `CN1CCc2c(c3ccccc3n2Cc2ccc(C(=O)NO)cc2)C1` [Tubastatin A], which “Reduction of bound [18F]Bavarostat radioactivity” value (HDAC6) is on record?
Its value is “comparable level as Bavarostat”.

What about the “α-tubulin acetylation level (α-tubulin-ac) vs DMSO” value (α-tubulin-ac; 10 μM) of the same compound?
Its value is “significantly increased”.

How did the “H3K9ac level vs DMSO” value (H3K9ac; 5 μM) turn out when `O=C(CCCCCCNC(=O)c1cnc(N(c2ccccc2)c2ccccc2)nc1)NO` [ACY-1215] was run?
Its value is “increased”.

What about the “α-tubulin acetylation level (α-tubulin-ac) vs DMSO” value (α-tubulin-ac; 5 μM) of the same compound?
The value was “effectively increased”.

What about the “H4K12ac level vs DMSO” value (H4K12ac; 5 μM) of the same compound?
Its value is “increased”.

For `CC(=O)Nc1ccc(C(=O)Nc2ccccc2N)cc1` [CI-994], which “H3K9ac level vs DMSO” value (H3K9ac; 10 μM) is on record?
Its value is “significant increase”.

What about the “α-tubulin acetylation level (α-tubulin-ac) vs DMSO” value (α-tubulin-ac; 10 μM) of the same compound?
The value was “not α-tubulin-ac”.

What about the “H4K12ac level vs DMSO” value (H4K12ac; 10 μM) of the same compound?
The value was “significant increase”.
